# pEC50: −log10 of the molar value.
# Target: AMPK
# Assay: AMPK activation, enzyme-linked immunosorbent assay
# Assay type: biochemical
# Conditions: EC50 for AMPK activation, ELISA
# Outline: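 Compounds were tested for their capacity to activate the kinase using standard, commercially available kit reagents and procedures.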
row,pEC50,Structure (SMILES)
1,> 6.30,"CC(C)Oc1ccc(CN2CCC(NC(=O)c3ccc(C(=O)N4CCC(C(=O)c5ccc(N6CCCC6)cc5)CC4)nc3)CC2)cc1 [Compound 446, N-(1-(4-isopropoxybenzyl)piperidin-4-yl)-6-(4-(4-(pyrrolidin-1-yl)benzoyl)piperidine-1-carbonyl)nicotinamide]"
2,5.30 to 6.00,"CS(=O)(=O)c1ccc(C(=O)C2CCN(C(=O)c3ccc(C(=O)NC4CCN(Cc5ccc(C#N)cc5)CC4)cn3)CC2)cc1 [Compound 221, N-(1-(4-cyanobenzyl)piperidin-4-yl)-6-(4-(4-(methylsulfonyl)benzoyl)piperidine-1-carbonyl)nicotinamide]"
3,> 6.30,"COc1ccc(CN2CCC(NC(=O)c3ccc(C(=O)N4CCC(Oc5ccc(C(=O)C6CC6)cc5)CC4)nc3)CC2)cc1 [Compound 458, 6-(4-(4-(cyclopropanecarbonyl)phenoxy)piperidine-1-carbonyl)-N-(1-(4-methoxybenzyl)piperidin-4-yl)nicotinamide]"
4,> 6.30,"COc1ccc(C(=O)C2CCN(C(=O)c3ccc(C(=O)N[C@H]4CC[C@@H](Oc5ccc(C#N)c(F)c5)CC4)nc3)CC2)cc1 [Compound 198, N-((cis)-4-(4-cyano-3-fluorophenoxy)cyclohexyl)-5-(4-(4-methoxybenzoyl)piperidine-1-carbonyl)picolinamide]"
5,5.00 to 5.30,"O=C(c1ccc(Nc2ccc(-c3ccccc3)cc2)nc1)N1CCN(Cc2ccc(F)cc2)CC1 [Compound 37, (6-(4-phenylphenylamino)pyridin-3-yl)(4-(4-fluorobenzyl)piperazin-1-yl)methanone]"
6,5.00 to 5.30,"O=C(Nc1ccccc1)c1ccc(C(=O)N2CCN(Cc3ccc(F)cc3)CC2)cn1 [Compound 107, 5-(4-(4-fluorobenzyl)piperazine-1-carbonyl)-N-phenylpicolinamide]"
7,> 6.30,"O=C(NC1CCN(Cc2ccc(OC(F)(F)F)cc2)CC1)c1ccc(C(=O)N2CCC(Oc3ccc(S(F)(F)(F)(F)F)cc3)CC2)nc1 [Compound 494, 6-(4-(4-(pentafluorosulfanyl)phenoxy)piperidine-1-carbonyl)-N-(1-(4-(trifluoromethoxy)benzyl)piperidin-4-yl)nicotinamide]"
8,> 6.30,"CSc1ccc(C(=O)C2CCN(C(=O)c3ccc(C(=O)NC4CCN(Cc5ccc(C#N)cc5)CC4)nc3)CC2)cc1 [Compound 372, N-(1-(4-cyanobenzyl)piperidin-4-yl)-5-(4-(4-(methylthio)benzoyl)piperidine-1-carbonyl)picolinamide]"
9,> 6.30,"N#Cc1ccc(CN2CCC(NC(=O)c3ccc(C(=O)N4CCC(C(=O)c5ccc(N6CCCC6)cc5)CC4)nc3)CC2)cc1F [Compound 447, N-(1-(4-cyano-3-fluorobenzyl)piperidin-4-yl)-6-(4-(4-(pyrrolidin-1-yl)benzoyl)piperidine-1-carbonyl)nicotinamide]"
10,5.30 to 6.00,"Cc1cc(CN2CCN(C(=O)c3ccc(C(=O)NC4CCN(Cc5ccccc5)CC4)nc3)CC2)no1 [Compound 85, N-(1-benzylpiperidin-4-yl)-5-(4-((5-methylisoxazol-3-yl)methyl)piperazine-1-carbonyl)picolinamide]"
11,< 5.00,"CS(=O)(=O)Nc1ccc(CN2CCC(NC(=O)c3ccc(C(=O)N4CCC(C(=O)c5ccc(F)cc5F)CC4)nc3)CC2)cc1 [Compound 216, 6-(4-(2,4-difluorobenzoyl)piperidine-1-carbonyl)-N-(1-(4-(methylsulfonamido)benzyl)piperidin-4-yl)nicotinamide]"
12,5.30 to 6.00,"O=C(Nc1ccc(C(=O)N2CCN(Cc3ccc(F)cc3)CC2)cn1)c1ccc(Oc2ccc(F)cc2)nc1 [Compound 177, N-(5-(4-(4-fluorobenzyl)piperazine-1-carbonyl)pyridin-2-yl)-6-(4-fluorophenoxy) nicotinamide]"

# The next lines start with the compound.
row,Structure (SMILES),pEC50
1,"COc1ccc(C(=O)C2CCN(C(=O)c3ccc(C(=O)N[C@H]4CCN(Cc5ccc(C#N)cc5)C[C@H]4F)cn3)CC2)cc1 (relative stereo) [Compound 454, N-((cis)-1-(4-cyanobenzyl)-3-fluoropiperidin-4-yl)-6-(4-(4-methoxybenzoyl)piperidine-1-carbonyl)nicotinamide]",> 6.30
2,"N#Cc1ccc(CN2CCC(NC(=O)c3ccc(C(=O)NC4CCN(c5ccc(C#N)cc5)CC4)cn3)CC2)cc1 [Compound 166, N2-(1-(4-cyanobenzyl)piperidin-4-yl)-N5-(1-(4-cyanophenyl)piperidin-4-yl)pyridine-2,5-dicarboxamide]",> 6.30
3,"N#Cc1ccc(CN2CCC(NC(=O)c3ccc(C(=O)N4CCC(Oc5cccnc5)CC4)cn3)CC2)cc1 [Compound 283, N-(1-(4-cyanobenzyl)piperidin-4-yl)-5-(4-(pyridin-3-yloxy)piperidine-1-carbonyl)picolinamide]",> 6.30
4,"O=C(NC1CCN(Cc2ccc(F)cc2)CC1)c1ccc(C(=O)N2CCN(Cc3ccc(F)cc3)CC2)nc1 [Compound 328, 6-(4-(4-fluorobenzyl)piperazine-1-carbonyl)-N-(1-(4-fluorobenzyl)piperidin-4-yl)nicotinamide]",> 6.30
5,"N#Cc1ccc(OC2CCN(C(=O)c3ccc(C(=O)NC4CCN(Cc5ccc(N6CCOCC6)cc5)CC4)cn3)CC2)cc1 [Compound 337, 6-(4-(4-cyanophenoxy)piperidine-1-carbonyl)-N-(1-(4-morpholinobenzyl)piperidin-4-yl)nicotinamide]",> 6.30
6,"COc1ccc(CN2CCC(NC(=O)c3ccc(C(=O)N4CCC(Oc5ccc(S(C)(=O)=O)cc5)CC4)cn3)CC2)cc1 [Compound 202, N-(1-(4-methoxybenzyl)piperidin-4-yl)-5-(4-(4-(methylsulfonyl)phenoxy)piperidine-1-carbonyl)picolinamide]",> 6.30
7,"CC(C)(C)OC(=O)N1CCC(NC(=O)c2ccc(C(=O)N3CCC(Oc4ccc(C#N)cc4)CC3)nc2)CC1 [Compound 333, tert-butyl 4-(6-(4-(4-cyanophenoxy)piperidine-1-carbonyl)nicotinamido)piperidine-1-carboxylate]",> 6.30
8,"COc1cccc(CN2CCC(NC(=O)c3ccc(C(=O)N4CCC(Oc5ccc(S(C)(=O)=O)cc5)CC4)nc3)CC2)c1 [Compound 238, N-(1-(3-methoxybenzyl)piperidin-4-yl)-6-(4-(4-(methylsulfonyl)phenoxy)piperidine-1-carbonyl)nicotinamide]",5.30 to 6.00
9,"O=C(Nc1ccc(Oc2ccc(F)cc2)nc1)c1ccc(C(=O)N2CCC(C(=O)c3ccc(N4CCOCC4)cc3)CC2)cn1 [Compound 379, N-(6-(4-fluorophenoxy)pyridin-3-yl)-5-(4-(4-morpholinobenzoyl)piperidine-1-carbonyl)picolinamide]",> 6.30
10,"N#Cc1ccc(CN2CCC(NC(=O)c3ccc(C(=O)N4CC(OCc5ccc(F)cc5)C4)cn3)CC2)cc1 [Compound 307, N-(1-(4-cyanobenzyl)piperidin-4-yl)-5-(3-(4-fluorobenzyloxy)azetidine-1-carbonyl)picolinamide]",6.00 to 6.30
11,"COc1ccc(C(=O)C2CCN(C(=O)c3ccc(C(=O)Nc4ccc(Oc5ccc(S(C)(=O)=O)cc5)nc4)cn3)CC2)cc1 [Compound 465, 6-(4-(4-methoxybenzoyl)piperidine-1-carbonyl)-N-(6-(4-(methylsulfonyl)phenoxy)pyridin-3-yl)nicotinamide]",> 6.30
12,"N#Cc1ccc(CN2CCC(NC(=O)c3ccc(C(=O)N4CCN(C(=O)c5ccc(F)cc5)CC4)cn3)CC2)cc1 [Compound 76, N-(1-(4-cyanobenzyl)piperidin-4-yl)-5-(4-(4-fluorobenzoyl)piperazine-1-carbonyl)picolinamide]",> 6.30
13,"COc1ccc(-c2ccc(Nc3ccc(C(=O)NC4CCN(Cc5ccccc5)CC4)nc3)cc2)cc1 [Compound 120, N-(1-benzylpiperidin-4-yl)-5-(4′-methoxybiphenyl-4-ylamino)picolinamide]",< 5.00
14,"N#Cc1ccc(CN2CCC(NC(=O)c3ccc(C(=O)N4CCC(C(O)c5ccc(F)cc5)CC4)cn3)CC2)cc1 (stereo not shown) [Compound 142, N-(1-(4-cyanobenzyl)piperidin-4-yl)-5-(4-((4-fluorophenyl)(hydroxy)methyl)piperidine-1-carbonyl)picolinamide]",> 6.30
15,"COc1ccc(C(=O)C2CCN(C(=O)c3cnc(C(=O)Nc4ccc(Oc5ccc(F)cc5)nc4)cn3)CC2)cc1 [Compound 204, N-(6-(4-fluorophenoxy)pyridin-3-yl)-5-(4-(4-methoxybenzoyl)piperidine-1-carbonyl)pyrazine-2-carboxamide]",> 6.30
16,N#Cc1ccc(CN2CC[C@@H](NC(=O)c3ccc(C(=O)N4CCN(Cc5ccc(F)cc5)CC4)cn3)[C@@H](F)C2)cc1 [Compound 100],> 6.30
17,"N#Cc1ccc(CN2CCC(NC(=O)c3ccc(NC4CCN(c5ccc(C#N)cc5)CC4)cn3)CC2)cc1 [Compound 267, N-(1-(4-cyanobenzyl)piperidin-4-yl)-5-(1-(4-cyanophenyl)piperidin-4-ylamino)picolinamide]",> 6.30
18,"N#Cc1ccc(CN2CCC(NC(=O)c3ccc(C(=O)N4CCC(Oc5ccc(S(F)(F)(F)(F)F)cc5)CC4)nc3)CC2)cc1 [Compound 493, N-(1-(4-cyanobenzyl)piperidin-4-yl)-6-(4-(4-(pentafluorosulfanyl)phenoxy)piperidine-1-carbonyl)nicotinamide]",> 6.30
19,"N#Cc1ccc(CN2CCC(NC(=O)c3ccc(C(=O)N4CC(Oc5ccc(C#N)cc5)C4)cn3)CC2)cc1 [Compound 209, N-(1-(4-cyanobenzyl)piperidin-4-yl)-5-(3-(4-cyanophenoxy)azetidine-1-carbonyl)picolinamide]",> 6.30
20,"O=C(c1ccc(C(=O)N2CCN(Cc3ccccc3)CC2)nc1)N1CCN(Cc2ccccc2)CC1 [Compound 73, pyridine-2,5-diylbis((4-benzylpiperazin-1-yl)methanone)]",5.00 to 5.30
21,"CS(=O)(=O)c1ccc(C(=O)C2CCN(C(=O)c3ccc(C(=O)NC4CCN(Cc5ccc(F)cc5)CC4)nc3)CC2)cc1 [Compound 225, N-(1-(4-fluorobenzyl)piperidin-4-yl)-5-(4-(4-(methylsulfonyl)benzoyl)piperidine-1-carbonyl)picolinamide]",> 6.30
22,"COc1ccc(CN2CCC(NC(=O)c3ccc(C(=O)N4CCC(Oc5cccc(NC(C)=O)c5)CC4)nc3)CC2)cc1 [Compound 412, 6-(4-(3-acetamidophenoxy)piperidine-1-carbonyl)-N-(1-(4-methoxybenzyl)piperidin-4-yl)nicotinamide]",5.30 to 6.00

# Reference: US9663496B2, “AMPK-activating heterocyclic compounds and methods for using the same” (Rigel Pharmaceuticals, Inc., priority 2010, dated 2017)
